Consider three compounds from patent US20090093482A1, “THERAPEUTIC COMPOSITIONS AND METHODS” (Gilead Sciences, Inc., priority 2007, published 2009).

Several values for one entry are separate records, joined by “and”; a condition that tells them apart may be missing. Identical values can stand only once.

Data set [1] is described as follows: Pharmacokinetic interaction between lopinavir/r and the Compound, steady-state PK in healthy volunteers. It is filed as in vivo, human. The settings on record: for Exposures when coadministered with the Compound: LPV/r 400/100 mg BID + the Compound 125 mg QD; for AUCtau % GMR (90% CI) / Cmax % GMR (90% CI) / Ctau % GMR (90% CI): 14-day periods.
A short description of data set [2]: Compartmental modeling in WinNonlin of Compound doses using the observed lopinavir interaction data. Further details: species or system human. The settings on record: modeled. The text has this:
Consideration was given to achieving equivalent Compound exposures in patients receiving and not receiving lopinavir using pharmacokinetic (bio-) equivalence comparisons (Pharsight Corporation, Mountain View, Calif., USA). Consideration was also given to minimizing the number of individuals with extreme outliers in (low or high) exposures.

The mark [3] stands for this setting: LPV/r 400/100 mg BID + the Compound 125 mg QD vs LPV/r 400/100 mg BID alone, n = 13.
Where [4] appears, read: the Compound 125 mg QD + LPV/r 400/100 mg BID vs the Compound/r 125/100 mg QD alone, n = 14.

For the compound `CC(C)c1nc(CN(C)C(=O)NC(C(=O)NC(Cc2ccccc2)CC(O)C(Cc2ccccc2)NC(=O)OCc2cncs2)C(C)C)cs1` (stereo not drawn) [RTV, 1,3-thiazol-5-ylmethyl[3-hydroxy-5-[3-methyl-2-[methyl-[(2-propan-2-yl-1,3-thiazol-4-yl)methyl]carbamoyl]amino-butanoyl]amino-1,6-diphenyl-hexan-2-yl]aminoformate], the “Exposures when coadministered with the Compound” value in data set [1] is “unaltered”. Also, in data set [1] (setting [3]), the “AUCtau % GMR (90% CI)” value came to 103%, the “Cmax % GMR (90% CI)” value turned out to be 114% and the “Ctau % GMR (90% CI)” value is given as 88.3%.
`COc1cc2c(cc1Cc1cccc(Cl)c1F)c(=O)c(C(=O)O)cn2[C@H](CO)C(C)C` [the Compound, 6-(3-chloro-2-fluorobenzyl)-1-[(2S)-1-hydroxy-3-methylbutan-2-yl]-7-methoxy-4-oxo-1,4-dihydroquinoline-3-carboxylic acid]: the “Reduction in the dose of the Compound with lopinavir while maintaining an equivalent exposure” value in data set [2] is 40-60%. Also, in data set [2] (reference is the 150 mg ritonavir-boosted dose without lopinavir), the “Dose of the Compound with lopinavir/r giving systemic exposure (AUC) similar to a 150 mg dose without lopinavir” value was 85 mg and 85 ± 10 mg. The “Dose of the Compound with lopinavir/r giving systemic exposure (AUC) similar to a 300 mg dose without lopinavir” value in data set [2] (reference is the 300 mg ritonavir-boosted dose without lopinavir) is reported as 150 mg. For the same compound, in data set [1] (setting [4]), the “AUCtau % GMR (90% CI)” value is given as 175 (150, 204) %; the “Cmax % GMR (90% CI)” value is 152 (129, 179) %; the “Ctau % GMR (90% CI)” value is 238 (181, 313) %.
On to `Cc1cccc(C)c1OCC(=O)N[C@@H](Cc1ccccc1)[C@@H](O)C[C@H](Cc1ccccc1)NC(=O)[C@H](C(C)C)N1CCCNC1=O` [LPV, (2S)-N-[(2S,4S,5S)-5-{[2-(2,6-dimethyl-phenoxy)acetyl]amino}-4-hydroxy-1,6-diphenyl-hexan-2-yl]-3-methyl-2-(2-oxo-1,3-diazinan-1-yl)butanamide], for which, in data set [1], the “Exposures when coadministered with the Compound” value was “unaltered”. Further, in data set [1] (setting [3]), the “AUCtau % GMR (90% CI)” value is recorded as 96.6%, the “Cmax % GMR (90% CI)” value is given as 99.2% and the “Ctau % GMR (90% CI)” value stood at 92.3%. Moreover, in data set [1] (relative to recommended target troughs), the “Trough concentrations when coadministered with the Compound” value is given as “maintained above recommended target troughs”.
